Values of other authors in patent US20070238696A1, “Dosage unit for cardioprotection” (priority 2000, published 2007).

Settings: men, median intake 419 IU/day compared to median intake 6 IU/day; followed for four years

## vitamin E
  relative risk reduction: 44%
